Patent publication US10835468B2, “Particular pyridinedicarboxylic acid derivative/antioxidant combination” (L'OREAL, priority 2014, dated 2020)
Where “and” joins values, the source holds several entries; their conditions need not be identical. Equal values may be shown once.

Experiments:
Format in all cases: cell-based
Details in all cases: 72 hours under normoxia
BNIP3 = test: Expression of hypoxia-sensitive gene BNIP3 in primary human keratinocytes in culture (RT-qPCR)
Experimental: (§1) The following protocol was followed: the tests were performed on human keratinocytes in culture, seeded on Greiner brand 48-well plates, coated with bovine collagen I. The plates were prepared according to the following procedure: the solution of bovine collagen I at 0.1 mg/ml was prepared by dilution in phosphate-buffered saline (PBS) of the bovine collagen I solution sold by the company Life Technologies. Each well was immersed with 1 ml of this dilution, which was left at the bottom of the wells for 1 hour at 37° C. At the end of the incubation, the collagen solution was removed and the wells were rinsed twice with 1 ml of PBS. The plates were then stored at 4° C. until the time of use. […] Following this culturing and treatment, the cell lawns were washed with phosphate-buffered saline (or PBS) and then lysed using a lysis buffer proposed in the kit from the supplier Qiagen. The RNAs were then extracted using the RNeasy isolation kit and the Qiacube robotic workstation, both sold by the company Qiagen, according to the manufacturer's instructions. The quantity and quality of RNAs were controlled using the LabChip® GX bioanalyser from Perkin-Elmer before performing reverse transcription (RT) using the Qiagen kit and according to the supplier's recommendations (QuantiTect reverse transcription kit). The cDNA obtained following the RT was then amplified by real-time quantitative PCR using a specific kit sold under the commercial brand LightCycler® 480 SYBR Green Master Mix by the company Roche (Cat. No. 14123920) and an LC480 thermocycler (Roche). The PCRs were performed in triplicate (n=3). The information relating to the primers used is presented below. […] EGNL3/[…] Quantitect Assay Primer; RPL13A/QT00089915/Hs_RPL13A-1-SG Quantitect Assay Primer, and the fluorescent probe of brand name SYBR Green sold by the company specified previously. The PCR was performed in three phases: • denaturing phase for 10 minutes at 95° C., • amplification phase which consists of 45 cycles comprising: • a step of denaturing for 30 seconds at 95° C., • a step of hybridization for 30 seconds at 60° C., and • a step of elongation at 72° C. for 30 seconds, • melting phase for ensuring the quality of the hybridizations. The incorporation of SYBR Green into the amplified DNA was measured continuously during the amplification cycles. These measurements make it possible to obtain curves of fluorescence intensity as a function of the PCR cycles and thus to evaluate the relative expression of each marker from the cycle thresholds (Ct), corresponding to the number of cycles required to appropriately detect a fluorescence level. For each marker and for each condition, the relative expression (RE) value was normalized relative to the expression of the reference gene RPL13. The expression of each gene is normalized by that of the “stable referent gene” (or “housekeeping gene” RPL13A, ribosomal gene). The results (“fold change” (Fc)) are expressed relative to the control. The genes used are hypoxia-sensitive (HIF-1 alpha signalling pathway) and are collated in Table 1 below. Three hypoxia-sensitive genes (BNIP3, EGLN3 and CA9) were used in the following examples. Three tests were performed according to the protocol described above for each gene and for each compound or combination.

EGLN3 = test: Expression of hypoxia-sensitive gene EGLN3 in primary human keratinocytes in culture (RT-qPCR)
Experimental: as §1

CA9 = test: Expression of hypoxia-sensitive gene CA9 in primary human keratinocytes in culture (RT-qPCR)
Experimental: as §1

Compound | BNIP3 expression, fold change relative to the control, mean ± standard deviation (BNIP3; compound 10 μM) | BNIP3 expression, fold change relative to the control, single tests (BNIP3; compound 10 μM) | BNIP3 expression, fold change relative to the control, mean ± standard deviation (BNIP3; compound 30 μM) | BNIP3 expression, fold change relative to the control, single tests (BNIP3; compound 30 μM) | EGLN3 expression, fold change relative to the control, mean ± standard deviation (EGLN3; compound 10 μM) | EGLN3 expression, fold change relative to the control, mean ± standard deviation (EGLN3; compound 30 μM) | CA9 expression, fold change relative to the control, mean ± standard deviation (CA9; compound 10 μM) | CA9 expression, fold change relative to the control, mean ± standard deviation (CA9; compound 30 μM) | BNIP3 expression, fold change relative to the control, mean ± standard deviation (BNIP3; compound 100 μM) | BNIP3 expression, fold change relative to the control, single tests (BNIP3; compound 100 μM) | BNIP3 expression, fold change relative to the control, mean ± standard deviation (BNIP3; compound 300 μM) | BNIP3 expression, fold change relative to the control, single tests (BNIP3; compound 300 μM) | EGLN3 expression, fold change relative to the control, mean ± standard deviation (EGLN3; compound 100 μM) | EGLN3 expression, fold change relative to the control, single tests (EGLN3; compound 100 μM) | EGLN3 expression, fold change relative to the control, mean ± standard deviation (EGLN3; compound 300 μM) | EGLN3 expression, fold change relative to the control, single tests (EGLN3; compound 300 μM) | CA9 expression, fold change relative to the control, mean ± standard deviation (CA9; compound 100 μM) | CA9 expression, fold change relative to the control, mean ± standard deviation (CA9; compound 300 μM) | CA9 expression, fold change relative to the control, single tests (CA9; compound 300 μM) | further results
CCCCCCCCCCCCCCCC(=O)OC[C@H](O)[C@H]1OC(=O)C(O)=C1O [Ascorbyl palmitate, ascorbyl palmitate] | (1.10 ± 0.22) | 1.01 and 1.35 and 0.95 | (1.15 ± 0.41) | 1.04 and 1.6 and 0.81 | (1.35 ± 0.46) | (1.16 ± 0.81) | (1.63 ± 0.38) | (0.99 ± 0.80) | – | – | – | – | – | – | – | – | – | – | – | CA9 expression, fold change relative to the control, single tests (CA9; compound 10 μM): 1.65 and 2.00 and 1.25
O=C(O)[C@H]1O[C@@H](Oc2cc3oc(-c4ccccc4)cc(=O)c3c(O)c2O)[C@H](O)[C@@H](O)[C@@H]1O [Baicalin, baicalin] | – | – | (1.23 ± 0.15) | 1.14 and 1.41 and 1.15 | – | (2.07 ± 0.39) | – | (0.91 ± 0.27) | – | – | – | – | – | – | – | – | – | – | – | BNIP3 expression, fold change relative to the control, mean ± standard deviation (BNIP3; compound 3 μM): (1.11 ± 0.15); BNIP3 expression, fold change relative to the control, single tests (BNIP3; compound 3 μM): 0.99 and 1.27 and 1.06; EGLN3 expression, fold change relative to the control, mean ± standard deviation (EGLN3; compound 3 μM): (1.19 ± 0.17); EGLN3 expression, fold change relative to the control, single tests (EGLN3; compound 3 μM): 1.00 and 1.33 and 1.25; EGLN3 expression, fold change relative to the control, single tests (EGLN3; compound 30 μM): 1.70 and 2.47 and 2.03; CA9 expression, fold change relative to the control, mean ± standard deviation (CA9; compound 3 μM): (1.06 ± 0.28); CA9 expression, fold change relative to the control, single tests (CA9; compound 3 μM): 1.27 and 1.18 and 0.74; CA9 expression, fold change relative to the control, single tests (CA9; compound 30 μM): 1.06 and 1.07 and 0.6
CC1=NCC[C@@H](C(=O)O)N1 [Ectoin, ectoin] | – | – | – | – | – | – | – | – | (1.62 ± 0.27) | 1.31 and 1.77 | (1.62 ± 0.2) | 1.40 and 1.79 and 1.66 | (2.90 ± 0.50) | 2.48 and 2.76 and 3.46 | (2.62 ± 0.48) | 2.07 and 2.82 and 2.97 | (3.01 ± 0.64) | (2.57 ± 0.35) | 2.23 and 2.54 and 2.93 | CA9 expression, fold change relative to the control, single tests (CA9; compound 100 μM): 2.73 and 2.55 and 3.74
Oc1ccc(C=Cc2cc(O)cc(O)c2)cc1 [Resveratrol, resveratrol] | – | – | – | – | – | – | – | – | – | – | – | – | – | – | – | – | – | – | – | BNIP3 expression, fold change relative to the control, mean ± standard deviation (BNIP3; compound 0.3 μM): (1.26 ± 0.24); BNIP3 expression, fold change relative to the control, single tests (BNIP3; compound 0.3 μM): 1.05 and 1.53 and 1.21; BNIP3 expression, fold change relative to the control, mean ± standard deviation (BNIP3; compound 1 μM): (2.01 ± 0.79); EGLN3 expression, fold change relative to the control, mean ± standard deviation (EGLN3; compound 0.3 μM): (1.92 ± 0.55); EGLN3 expression, fold change relative to the control, single tests (EGLN3; compound 0.3 μM): 1.31 and 2.36 and 2.10; EGLN3 expression, fold change relative to the control, mean ± standard deviation (EGLN3; compound 1 μM): (3.65 ± 1.76); CA9 expression, fold change relative to the control, mean ± standard deviation (CA9; compound 0.3 μM): (1.63 ± 0.28); CA9 expression, fold change relative to the control, single tests (CA9; compound 0.3 μM): 1.82 and 1.75 and 1.31; CA9 expression, fold change relative to the control, mean ± standard deviation (CA9; compound 1 μM): (2.02 ± 0.33); CA9 expression, fold change relative to the control, single tests (CA9; compound 1 μM): 2.34 and 1.97 and 1.75
CCOC(=O)c1ccnc(C(=O)OCC)c1 [Stemoxydine, diethyl 2,4-pyridinedicarboxylate] | – | – | – | – | – | – | – | – | – | – | (1.76 ± 0.32) | 1.51 and 1.65 and 2.13 | – | – | (2.60 ± 0.83) | 2.15 and 2.09 and 3.56 | – | (4.53 ± 1.15) | 3.87 and 3.86 and 5.86 | –
O=C1O[C@H]([C@@H](O)CO)C(O)=C1O [Vitamin C, reference compound] | (1.01 ± 0.12) | 1.02 and 1.13 and 0.89 | – | – | (1.07 ± 0.29) | – | (1.02 ± 0.52) | – | (1.12 ± 0.18) | 0.98 and 1.32 and 1.07 | – | – | (1.24 ± 0.24) | 1.05 and 1.51 and 1.16 | – | – | (1.22 ± 0.42) | – | – | EGLN3 expression, fold change relative to the control, single tests (EGLN3; compound 10 μM): 0.92 and 1.41 and 0.89
